Results on 40 compounds are retold here after patent US9079866B2, “Flap modulators” (JANSSEN PHARMACEUTICA NV, priority 2013, dated 2015).

Counter-ions that a name gives are not always drawn.

A word on the Ki: it is a dissociation constant, usually derived from enzyme kinetics or from competition with a known ligand. A low value points to tighter binding.

The target in this assay is human FLAP (Homo sapiens (Human), UniProt P20292). The assay can be described thus: FLAP binding assay (HTRF format). The note with it: wild type FLAP, HTRF format. The essentials: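 Binding of compounds to FLAP read out as HTRF ratio. Values are the mean of two assay plates, each sample run in duplicate per plate.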
human FLAP, sequence (P20292 whole entry): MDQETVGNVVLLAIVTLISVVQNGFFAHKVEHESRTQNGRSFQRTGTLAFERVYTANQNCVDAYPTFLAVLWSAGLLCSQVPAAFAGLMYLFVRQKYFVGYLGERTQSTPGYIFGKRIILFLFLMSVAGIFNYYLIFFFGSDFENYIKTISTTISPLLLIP
On the technique in general: TR-FRET usually uses a lanthanide donor and a delayed reading to cut background.
Compound `CNS(=O)(=O)c1ccccc1-c1ccc(-c2ccc(N)nc2)c(F)c1` [Example 661, 4′-(6-Aminopyridin-3-yl)-3′-fluoro-N-methyl-[1,1′-biphenyl]-2-sulfonamide] registered an inhibitory constant (Ki) of approximately 2490 nM.
In turn, `Nc1ccc(-c2ccc(-c3ccccc3S(N)(=O)=O)cc2F)cn1` [Example 662, 4′-(6-Aminopyridin-3-yl)-3′-fluoro-[1,1′-biphenyl]-2-sulfonamide trifluoroacetate] showed a Ki of approximately 1220 nM.
`Nc1ncc(-c2ccc(-c3ccccc3C(=O)N3CCOCC3)cn2)cn1` [Example 677, 5-{5-[2-(Morpholin-4-ylcarbonyl)phenyl]pyridin-2-yl}pyrimidin-2-amine] gave a Ki of more than 10000 nM.
`COc1ccccc1-c1ccc(-c2cnc(N)nc2)nc1` [Example 678, 5-[5-(2-Methoxyphenyl)pyridin-2-yl]pyrimidin-2-amine] showed a Ki of more than 10000 nM.
With `Nc1ncc(-c2ccc(-c3ccccc3S(=O)(=O)C3CC3)cn2)cn1` [Example 691, 5-{5-[2-(Cyclopropylsulfonyl)phenyl]pyridin-2-yl}pyrimidin-2-amine trifluoroacetic acid salt], the Ki is more than 10000 nM.
In the case of `N#Cc1ccccc1-c1ccc(-c2cnc(N)cn2)c(F)c1` [Example 701, 4′-(5-Aminopyrazin-2-yl)-3′-fluorobiphenyl-2-carbonitrile] it was approximately 1410 nM; in that of `Nc1cnc(-c2ccc(-c3ccccc3N3CCNC3=O)cc2F)cn1` [Example 702, 1-(4′-(5-Aminopyrazin-2-yl)-3′-fluoro-[1,1′-biphenyl]-2-yl)imidazolidin-2-one], approximately 304 nM.
`CC(C)(C)NS(=O)(=O)c1ccccc1-c1ccc(-c2cnc(N)nc2C#N)c(F)c1` [Example 703, 4′-(2-Amino-4-cyanopyrimidin-5-yl)-N-tert-butyl-3′-fluorobiphenyl-2-sulfonamide] gave a Ki of more than 10000 nM.
In the case of `Nc1ncc(-c2ccc(-c3ccccc3S(=O)(=O)CCNC(=O)c3ccccc3)cc2F)cn1` [Example 716, N-(2-{[4′-(2-Aminopyrimidin-5-yl)-3′-fluorobiphenyl-2-yl]sulfonyl}ethyl)benzamide] it was more than 10000 nM.
For `Nc1ncc(-c2ccc(-c3ccccc3S(=O)(=O)c3ncccn3)cc2F)cn1` [Example 718, 5-[3-Fluoro-2′-(pyrimidin-2-ylsulfonyl)biphenyl-4-yl]pyrimidin-2-amine], the Ki was more than 10000 nM.
As to `Nc1ncc(-c2ccc(-c3ccccc3S(=O)(=O)c3cnccn3)cc2F)cn1` [Example 719, 5-[3-Fluoro-2′-(pyrazin-2-ylsulfonyl)biphenyl-4-yl]pyrimidin-2-amine], the inhibition constant Ki was more than 10000 nM.
In the case of `Nc1ncc(-c2ccc(-c3ccccc3S(=O)(=O)c3ccncn3)cc2F)cn1` [Example 720, 5-[3-Fluoro-2′-(pyrimidin-4-ylsulfonyl)biphenyl-4-yl]pyrimidin-2-amine] it was more than 10000 nM; in that of `Nc1cc(S(=O)(=O)c2ccccc2-c2ccc(-c3cnc(N)nc3)c(F)c2)ncn1` [Example 721, 5-{2′-[(6-Aminopyrimidin-4-yl)sulfonyl]-3-fluorobiphenyl-4-yl}pyrimidin-2-amine], more than 10000 nM.
`Nc1ccnc(S(=O)(=O)c2ccccc2-c2ccc(-c3cnc(N)nc3)c(F)c2)n1` [Example 722, 5-{2′-[(4-Aminopyrimidin-2-yl)sulfonyl]-3-fluorobiphenyl-4-yl}pyrimidin-2-amine] returned an inhibition constant Ki of more than 10000 nM.
In the case of `Nc1cnc(S(=O)(=O)c2ccccc2-c2ccc(-c3cnc(N)nc3)c(F)c2)cn1` [Example 723, 5-{2′-[(5-Aminopyrazin-2-yl)sulfonyl]-3-fluorobiphenyl-4-yl}pyrimidin-2-amine] it was more than 10000 nM.
As for `Nc1ncc(-c2ccc(-c3ccccc3S(=O)(=O)c3ccnc(N)n3)cc2F)cn1` [Example 724, 4-{[4′-(2-Aminopyrimidin-5-yl)-3′-fluorobiphenyl-2-yl]sulfonyl}pyrimidin-2-amine], the Ki is more than 10000 nM.
In the case of `Nc1cncc(S(=O)(=O)c2ccccc2-c2ccc(-c3cnc(N)nc3)c(F)c2)n1` [Example 725, 5-{2′-[(6-Aminopyrazin-2-yl)sulfonyl]-3-fluorobiphenyl-4-yl}pyrimidin-2-amine] it was 1300 nM; in that of `Nc1cnc(-c2ccc(-c3ccccc3S(=O)(=O)c3cc(N)ncn3)cc2F)cn1` [Example 726, 6-{[4′-(5-Aminopyrazin-2-yl)-3′-fluorobiphenyl-2-yl]sulfonyl}pyrimidin-4-amine], 904 nM.
Turning to `Nc1ncc(-c2ccc(-c3ccccc3S(=O)(=O)CC3CC3)cc2F)cn1` [Example 728, 5-{2′-[(Cyclopropylmethyl)sulfonyl]-3-fluorobiphenyl-4-yl}pyrimidin-2-amine], affinity was put at a Ki of 781 nM.
As for `CC(C)(C#N)S(=O)(=O)c1ccccc1-c1ccc(-c2cnc(N)nc2)c(F)c1` [Example 732, 2-{[4′-(2-Aminopyrimidin-5-yl)-3′-fluorobiphenyl-2-yl]sulfonyl}-2-methylpropanenitrile], the affinity corresponds to a Ki of 557 nM.
Regarding `CC(C)(C(N)=O)S(=O)(=O)c1ccccc1-c1ccc(-c2cnc(N)nc2)c(F)c1` [Example 733, 2-{[4′-(2-Aminopyrimidin-5-yl)-3′-fluorobiphenyl-2-yl]sulfonyl}-2-methylpropanamide], the Ki is more than 10000 nM.
`CC(C)(CN)S(=O)(=O)c1ccccc1-c1ccc(-c2cnc(N)nc2)c(F)c1` [Example 734, 5-{2′-[(2-Amino-1,1-dimethylethyl)sulfonyl]-3-fluorobiphenyl-4-yl}pyrimidin-2-amine] had a Ki of more than 10000 nM.
Compound `CC(C)(CN)S(=O)(=O)c1ccccc1-c1ccc(-c2cnc(N)cn2)c(F)c1` [Example 737, 5-{2′-[(2-Amino-1,1-dimethylethyl)sulfonyl]-3-fluorobiphenyl-4-yl}pyrazin-2-amine] returned a Ki of 984 nM.
`NCC1(S(=O)(=O)c2ccccc2-c2ccc(-c3cnc(N)nc3)c(F)c2)CCCC1` [Example 740, 5-(2′-{[1-(Aminomethyl)cyclopentyl]sulfonyl}-3-fluorobiphenyl-4-yl)pyrimidin-2-amine] returned a Ki of more than 10000 nM.
In the case of `CC(C)(C)NS(=O)(=O)c1ccccc1-c1ccc(-c2cnc(NS(C)(=O)=O)cn2)c(F)c1` [Example 748, N-(tert-Butyl)-3′-fluoro-4′-(5-(methylsulfonamido)pyrazin-2-yl)-[1,1′-biphenyl]-2-sulfonamide] it was more than 10000 nM.
In turn, `CS(=O)(=O)Cc1ccccc1-c1ccc(-c2cnc(N)cn2)c(F)c1` [Example 750, 5-{3-Fluoro-2′-[(methylsulfonyl)methyl]biphenyl-4-yl}pyrazin-2-amine] registered a Ki of 1160 nM.
Compound `Nc1cnc(-c2ccc(-c3ccccc3C(=O)N3CC(O)C3)cc2F)cn1` [Example 755, 1-{[4′-(5-Aminopyrazin-2-yl)-3′-fluorobiphenyl-2-yl]carbonyl}azetidin-3-ol] had an inhibition constant (Ki) of 940 nM.
`Nc1cnc(-c2ccc(-c3ccccc3C(=O)NC3CCOCC3)cc2F)cn1` [Example 756, 4′-(5-Aminopyrazin-2-yl)-3′-fluoro-N-(tetrahydro-2H-pyran-4-yl)biphenyl-2-carboxamide] displayed a Ki of more than 10000 nM.
In the case of `Nc1ncc(-c2ccc(-c3ccccc3C(=O)NCCO)cc2F)cn1` [Example 761, 4′-(2-Aminopyrimidin-5-yl)-3′-fluoro-N-(2-hydroxyethyl)biphenyl-2-carboxamide] it was more than 10000 nM; in that of `Nc1ncc(-c2ccc(-c3ccccc3C(=O)N3CCC[C@@H](O)C3)cc2F)cn1` [Example 764, (3R)-1-{[4′-(2-Aminopyrimidin-5-yl)-3′-fluorobiphenyl-2-yl]carbonyl}piperidin-3-ol], more than 10000 nM; in that of `Nc1ncc(-c2ccc(-c3ccccc3C(=O)N3CCC[C@H](O)C3)cc2F)cn1` [Example 767, (3S)-1-{[4′-(2-Aminopyrimidin-5-yl)-3′-fluorobiphenyl-2-yl]carbonyl}piperidin-3-ol], more than 10000 nM.
`Nc1cnc(-c2ccc(-c3ccccc3C(=O)N3CCC[C@H](O)C3)cc2F)cn1` [Example 768, (3S)-1-{[4′-(5-Aminopyrazin-2-yl)-3′-fluorobiphenyl-2-yl]carbonyl}piperidin-3-ol] came in with a Ki of 573 nM.
In the case of `Nc1cnc(-c2ccc(-c3ccccc3C(=O)N3CC[C@@H](O)C3)cc2F)cn1` [Example 769, (3R)-1-{[4′-(5-Aminopyrazin-2-yl)-3′-fluorobiphenyl-2-yl]carbonyl}pyrrolidin-3-ol] it was 1540 nM; in that of `Nc1ncc(-c2ccc(-c3ccccc3C(=O)N3CC[C@@H](O)C3)cc2F)cn1` [Example 770, (3R)-1-{[4′-(2-Aminopyrimidin-5-yl)-3′-fluorobiphenyl-2-yl]carbonyl}pyrrolidin-3-ol], more than 10000 nM.
The compound `Nc1cnc(-c2ccc(-c3ccccc3C(=O)N3CC[C@H](O)C3)cc2F)cn1` [Example 771, (3S)-1-{[4′-(5-Aminopyrazin-2-yl)-3′-fluorobiphenyl-2-yl]carbonyl}pyrrolidin-3-ol] had a Ki of more than 10000 nM.
The compound `Nc1ncc(-c2ccc(-c3ccccc3C(=O)N3CC[C@H](O)C3)cc2F)cn1` [Example 772, (3S)-1-{[4′-(2-Aminopyrimidin-5-yl)-3′-fluorobiphenyl-2-yl]carbonyl}pyrrolidin-3-ol] displayed a Ki of more than 10000 nM.
In the case of `C[C@H]1COCCN1C(=O)c1ccccc1-c1ccc(-c2cnc(N)nc2)c(F)c1` [Example 778, 5-(3-Fluoro-2′-{[(3S)-3-methylmorpholin-4-yl]carbonyl}biphenyl-4-yl)pyrimidin-2-amine], the Ki was more than 10000 nM.
In the case of `C[C@@H]1COCCN1C(=O)c1ccccc1-c1ccc(-c2cnc(N)nc2)c(F)c1` [Example 779, 5-(3-Fluoro-2′-{[(3R)-3-methylmorpholin-4-yl]carbonyl}biphenyl-4-yl)pyrimidin-2-amine] it was approximately 2490 nM.
`O=C(c1ncccc1-c1ccc(-c2cnc3[nH]ccc3c2)c(F)c1)N1CCOCC1` [Example 781, 5-{2-Fluoro-4-[2-(morpholin-4-ylcarbonyl)pyridin-3-yl]phenyl}-1H-pyrrolo[2,3-b]pyridine] showed an inhibition constant (Ki) of 730 nM.
In the case of `Nc1ncc(-c2ccc(-c3cccnc3C(=O)N3CCOCC3)cc2F)cn1` [Example 782, 5-{2-Fluoro-4-[2-(morpholin-4-ylcarbonyl)pyridin-3-yl]phenyl}pyrimidin-2-amine] it was more than 10000 nM.
